Our source for the MIC values is PMC3304000 (Bioorganic & medicinal chemistry, 2012).

≈ marks a conversion by molar mass, not a printed value. Where “and” joins values, the source holds several entries; their conditions need not be identical. Identical values can stand only once. A value given as a limit tells only on which side of the number the result lay.

Holding throughout (assay): microbe, parasite or virus in culture
Holding throughout (assay type): cell-based
Common to all, as to details: Mycobacterium tuberculosis

Test [1] concerns XDR-TB resistant to HRESKO.
Test [2] deals with MDR-TB resistant to HRERb.
Test [3] has as its system MDR-TB resistant to HREZSKP.
The test system of test [4] is XDR-TB resistant to HREKO.
Test [5] has as its system MDR-TB resistant to HREKP.
[6] abbreviates: MDR-TB resistant to HRERb (isoniazid, rifampin, ethambutol, rifabutin).
The mark [7] stands for this setting: MDR-TB resistant to HRERb, value in parentheses.

Regarding `Cc1ccn2c(C(=O)OCc3ccccc3)c(C)nc2c1` [Compound 11, benzyl 2,7-dimethylimidazo[1,2-a]pyridine-3-carboxylate], the MIC was < 0.01 µg/mL in test [1]; 0.6 µM in test [2] (setting [6]); 0.16 µg/mL in test [2] (setting [7]); < 0.01 µg/mL in test [3]; < 0.01 µg/mL in test [4]; < 0.01 µg/mL in test [5].

`O=C(OCc1ccccc1)c1csc(-c2ccccc2)n1` [Compound 5]: the MIC came to 5 µg/mL (≈ 16.9 µM) in test [1]; 10 µg/mL in test [2] (setting [7]); 10 µg/mL (≈ 33.9 µM) in test [3]; 5 µg/mL (≈ 16.9 µM) in test [4]; 1.25 µg/mL (≈ 4.23 µM) in test [5].

As for `O=C(OCc1ccccc1)c1coc(-c2ccccc2)n1` [Compound 2], the MIC in test [1] was found to be 1.25 µg/mL (≈ 4.48 µM); in test [2] (setting [7]), 2.5 µg/mL; in test [3], 2.5 µg/mL (≈ 8.95 µM); in test [4], 2.5 µg/mL (≈ 8.95 µM); in test [5] it was 0.3 µg/mL (≈ 1.07 µM).

On to `O=[N+]([O-])c1cn2c(n1)OC[C@@H](OCc1ccc(OC(F)(F)F)cc1)C2` [PA-824, reference compound], for which the MIC in test [1] was 0.31 µg/mL (≈ 0.863 µM); in test [2] (setting [6]) it was 0.45 to 0.86 µM; in test [2] (setting [7]), 0.16 to 0.31 µg/mL; in test [3], 0.45 µM to 0.86 µM and 0.16 µg/mL to 0.31 µg/mL; in test [4], 0.08 µg/mL (≈ 0.223 µM); in test [5], 0.45 µM to 0.86 µM and 0.16 µg/mL to 0.31 µg/mL.
